Reference: PubChem BioAssay AID248 (DTP/NCI, 2004)
“And” between values parts separate entries of the source, which are not always exact repeats. Identical values can stand only once. Inconclusive results and toxic doses are left out. Cut-off read from the data, not from the text of the source: active = T/C of 150% or more; inactive = T/C below 125%.

Test system: L1210 leukemia ip in BDF1 mice, survival T/C
Test: NCI In Vivo Anticancer Drug Screen. Data for tumor model L1210 Leukemia (intraperitoneal) in B6D2F1 (BDF1) mice
Conditions: endpoint: mean survival time, higher = longer survival
Procedure, shortened: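 Read-out is survival time, reported as the treated-group measurement over the vehicle-control measurement.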

[1] = dose: 100.0 mg/kg/injection, schedule: Q01DX009 (ip), vehicle: Klucel (hydroxypropylcellulose) (HPC)
[2] = dose: 100.0 mg/kg/injection, schedule: Q04DX003 (ip), vehicle: Klucel (hydroxypropylcellulose) (HPC)
[3] = dose: 200.0 mg/kg/injection, schedule: Q01DX009 (ip), vehicle: Klucel (hydroxypropylcellulose) (HPC)
[4] = dose: 200.0 mg/kg/injection, schedule: Q04DX003 (ip), vehicle: Klucel (hydroxypropylcellulose) (HPC)
[5] = dose: 400.0 mg/kg/injection, schedule: Q01DX009 (ip), vehicle: Klucel (hydroxypropylcellulose) (HPC)
[6] = dose: 400.0 mg/kg/injection, schedule: Q04DX003 (ip), vehicle: Klucel (hydroxypropylcellulose) (HPC)
[7] = dose: 100.0 mg/kg/injection, schedule: Q01DX001 (ip), vehicle: saline

Measured: T/C

Cc1[nH]c(=O)[nH]c(=O)c1NCCO
inactive: dose: 100.0 mg/kg/injection, schedule: Q01DX009 (ip), vehicle: water 91 % of control | dose: 100.0 mg/kg/injection, schedule: Q04DX003 (ip), vehicle: water 101 % of control | dose: 200.0 mg/kg/injection, schedule: Q01DX009 (ip), vehicle: water 96 % of control | dose: 200.0 mg/kg/injection, schedule: Q04DX003 (ip), vehicle: water 103 % of control | dose: 400.0 mg/kg/injection, schedule: Q01DX009 (ip), vehicle: water 102 % of control | dose: 400.0 mg/kg/injection, schedule: Q04DX003 (ip), vehicle: water 103 % of control

Cc1cc(C)c(C(=O)C=O)c(C)c1
inactive: dose: 50.0 mg/kg/injection, schedule: Q01DX009 (ip), vehicle: Klucel (hydroxypropylcellulose) (HPC) 101 % of control | [1] 100 % of control | [2] 104 % of control | [3] 95 % of control | [4] 107 % of control

Cc1cc(NC(=O)NCCCCCCNC(=O)Nc2cc(C)on2)no1
inactive: dose: 100.0 mg/kg/injection, schedule: Q01DX009 (ip), vehicle: other 89 % of control | dose: 200.0 mg/kg/injection, schedule: Q01DX009 (ip), vehicle: other 111 % of control | dose: 400.0 mg/kg/injection, schedule: Q01DX009 (ip), vehicle: other 100 % of control

CC(=O)OC1C=CN(C(C)=O)C(SC(C)(C)C)C1OC(C)=O (centres undefined)
inactive: [1] 101 % of control | [3] 106 % of control | [5] 100 % of control

OC12CCCC3CCCC(CCC1)C32 (centres undefined)
inactive: dose: 100.0 mg/kg/injection, schedule: Q01DX009 (ip), vehicle: saline sonified 108 % of control | [2] 106 % of control | dose: 200.0 mg/kg/injection, schedule: Q01DX009 (ip), vehicle: saline sonified 111 % of control | [4] 96 % of control | dose: 400.0 mg/kg/injection, schedule: Q01DX009 (ip), vehicle: saline sonified 92 % of control | [6] 104 % of control

Brc1ccc(C#Cc2ccccc2)cc1
inactive: [1] 100 % of control | [3] 100 % of control | [5] 108 % of control

CCC(O)(c1ccccc1)c1cnc(C)n1Cc1ccccc1 (centres undefined)
inactive: dose: 100.0 mg/kg/injection, schedule: Q01DX001 (ip), vehicle: saline with Tween-80 100 % of control and 108 % of control | dose: 100.0 mg/kg/injection, schedule: Q04DX002 (ip), vehicle: Klucel (hydroxypropylcellulose) (HPC) 102 % of control | dose: 100.0 mg/kg/injection, schedule: Q04DX002 (ip), vehicle: saline with Tween-80 93 % of control and 105 % of control | dose: 100.0 mg/kg/injection, schedule: Q04DX003 (ip), vehicle: saline with Tween-80 101 % of control | dose: 200.0 mg/kg/injection, schedule: Q01DX001 (ip), vehicle: saline with Tween-80 107 % of control and 91 % of control | dose: 200.0 mg/kg/injection, schedule: Q04DX002 (ip), vehicle: Klucel (hydroxypropylcellulose) (HPC) 112 % of control | dose: 200.0 mg/kg/injection, schedule: Q04DX002 (ip), vehicle: saline with Tween-80 88 % of control and 91 % of control | dose: 200.0 mg/kg/injection, schedule: Q04DX003 (ip), vehicle: saline with Tween-80 100 % of control | dose: 400.0 mg/kg/injection, schedule: Q04DX002 (ip), vehicle: saline with Tween-80 88 % of control and 90 % of control

C[n+]1c(/C=C/c2c[nH]c3ccccc23)ccc2ccccc21
inactive: dose: 5.0 mg/kg/injection, schedule: Q01DX001 (ip), vehicle: acetone 101 % of control | dose: 10.0 mg/kg/injection, schedule: Q01DX001 (ip), vehicle: acetone 102 % of control | dose: 20.0 mg/kg/injection, schedule: Q01DX001 (ip), vehicle: acetone 96 % of control | dose: 40.0 mg/kg/injection, schedule: Q01DX001 (ip), vehicle: acetone 107 % of control | dose: 80.0 mg/kg/injection, schedule: Q01DX001 (ip), vehicle: acetone 100 % of control

C/C=C(\CC)C1(CC)C(=O)NC(=O)NC1=O
inactive: dose: 75.0 mg/kg/injection, schedule: Q01DX001 (ip), vehicle: other 97 % of control | dose: 75.0 mg/kg/injection, schedule: Q01DX001 (ip), vehicle: saline 102 % of control | dose: 150.0 mg/kg/injection, schedule: Q01DX001 (ip), vehicle: other 97 % of control | dose: 150.0 mg/kg/injection, schedule: Q01DX001 (ip), vehicle: saline 103 % of control | dose: 300.0 mg/kg/injection, schedule: Q01DX001 (ip), vehicle: other 91 % of control | dose: 300.0 mg/kg/injection, schedule: Q01DX001 (ip), vehicle: saline 112 % of control

ClC(=C(c1ccccc1)c1ccccc1)c1ccccc1
inactive: [1] 92 % of control | [2] 94 % of control | [3] 96 % of control | [4] 92 % of control | [5] 95 % of control | [6] 95 % of control

COc1ccc2nc3cc(Cl)ccc3c(Nc3ccc(O)c(CN(CCCl)CCCl)c3)c2c1
inactive: dose: 0.3 mg/kg/injection, schedule: Q01DX Z (ip), vehicle: saline 118 % of control | dose: 4.8 mg/kg/injection, schedule: Q01DX Z (ip), vehicle: saline 94 % of control | dose: 5.0 mg/kg/injection, schedule: Q01DX001 (ip), vehicle: saline 111 % of control | dose: 7.5 mg/kg/injection, schedule: Q04DX003 (ip), vehicle: saline 120 % of control | dose: 10.0 mg/kg/injection, schedule: Q01DX001 (ip), vehicle: saline 108 % of control | dose: 20.0 mg/kg/injection, schedule: Q01DX001 (ip), vehicle: saline 104 % of control | [7] 87 % of control

C=CCc1ccc(OC(C)OCCOCCOCC)c(OC)c1 (centres undefined)
inactive: dose: 100.0 mg/kg/injection, schedule: Q04DX002 (ip), vehicle: saline 92 % of control | dose: 200.0 mg/kg/injection, schedule: Q04DX002 (ip), vehicle: saline 96 % of control | dose: 400.0 mg/kg/injection, schedule: Q04DX002 (ip), vehicle: saline 101 % of control

O=[N+]([O-])c1cccc(P(=O)(O)O)c1
inactive: dose: 50.0 mg/kg/injection, schedule: Q01DX001 (ip), vehicle: saline 115 % of control | [7] 107 % of control | dose: 200.0 mg/kg/injection, schedule: Q01DX001 (ip), vehicle: saline 97 % of control | dose: 400.0 mg/kg/injection, schedule: Q01DX001 (ip), vehicle: saline 103 % of control

CC(=O)Nc1ncc(/C=C/C=C/c2ccc([N+](=O)[O-])cc2)c(NC(C)=O)n1
inactive: dose: 100.0 mg/kg/injection, schedule: Q01DX001 (ip), vehicle: Klucel (hydroxypropylcellulose) (HPC) 91 % of control | dose: 200.0 mg/kg/injection, schedule: Q01DX001 (ip), vehicle: Klucel (hydroxypropylcellulose) (HPC) 86 % of control | dose: 400.0 mg/kg/injection, schedule: Q01DX001 (ip), vehicle: Klucel (hydroxypropylcellulose) (HPC) 87 % of control

CN(C)c1ccc(C(C#N)=C(C#N)C#N)cc1
inactive: dose: 100.0 mg/kg/injection, schedule: Q01DX001 (ip), vehicle: acetone 96 % of control | dose: 100.0 mg/kg/injection, schedule: Q01DX009 (ip), vehicle: acetone 97 % of control | dose: 200.0 mg/kg/injection, schedule: Q01DX001 (ip), vehicle: acetone 99 % of control | dose: 200.0 mg/kg/injection, schedule: Q01DX009 (ip), vehicle: acetone 97 % of control | dose: 400.0 mg/kg/injection, schedule: Q01DX001 (ip), vehicle: acetone 94 % of control
